29 compounds from ChEMBL document CHEMBL5096216, “Rational Design, Synthesis, and Biological Evaluation of Novel S1PR2 Antagonists for Reversing 5-FU-Resistance in Colorectal Cancer” (J Med Chem, 2022) can be followed below.

The assay has as its target Sphingosine 1-phosphate receptor 2 (Homo sapiens, UniProt O95136). As to the kind of experiment: Binding affinity to S1PR2 (unknown origin) assessed as dissociation constant by surface plasmon resonance analysis.

Chain of Sphingosine 1-phosphate receptor 2 (O95136 whole entry): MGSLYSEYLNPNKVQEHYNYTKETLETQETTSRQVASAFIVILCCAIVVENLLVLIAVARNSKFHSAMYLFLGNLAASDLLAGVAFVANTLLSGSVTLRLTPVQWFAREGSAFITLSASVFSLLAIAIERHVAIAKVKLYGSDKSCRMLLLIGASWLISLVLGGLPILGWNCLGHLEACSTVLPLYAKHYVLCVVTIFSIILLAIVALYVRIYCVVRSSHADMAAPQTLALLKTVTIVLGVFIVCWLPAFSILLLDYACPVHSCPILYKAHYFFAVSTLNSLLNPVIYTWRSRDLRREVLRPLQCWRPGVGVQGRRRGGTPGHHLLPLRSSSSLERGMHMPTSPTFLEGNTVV

As for `CCC(CC)CN1CCN(C(=O)Nc2cc(Oc3ccc(F)cc3)cc(Oc3ccc(C(=O)N(C)C)cc3)c2)CC1`, the Kd stood at 55.6 nM.
Turning to `C#CCNC(=O)c1ccc(Oc2cc(NC(=O)N3CCN(CC(CC)CC)CC3)cc(Oc3ccc(F)cc3)c2)cc1`, the equilibrium dissociation constant (Kd) is greater than 1000 nM.
`CNC(=O)c1ccc(Oc2cc(NC(=O)N3CCC(O)(c4ccc(Cl)cc4)CC3)cc(Oc3ccc(F)cc3)c2)cc1`: the Kd amounted to 5.16 nM.
Consider `CCC(CC)CC1(O)CCN(C(=O)Nc2cc(Oc3ccc(F)cc3)cc(Oc3ccc(S(N)(=O)=O)cc3)c2)CC1`, for which the Kd is greater than 1000 nM.
Regarding `CCC(CC)CN1CCN(C(=O)Nc2cc(Oc3ccc(F)cc3)cc(Oc3ccc(C(N)=O)cc3)c2)CC1`, the Kd turned out to be 88.5 nM.
As to `CNC(=O)c1ccc(Oc2cc(NC(=O)N3CCN(C(=O)c4ccc(F)cc4)CC3)cc(Oc3ccc(F)cc3)c2)cc1`, the dissociation constant (Kd) is 94.3 nM.
Consider `CNC(=O)c1ccc(Oc2cc(NC(=O)N3CCN(c4ccc(C(F)(F)F)cc4)CC3)cc(Oc3ccc(F)cc3)c2)cc1`, for which the Kd was greater than 1000 nM.
Then `CNC(=O)c1ccc(Oc2cc(NC(=O)N3CCN(C(=O)Cc4cccc(OC)c4)CC3)cc(Oc3ccc(F)cc3)c2)cc1`, with greater than 1000 nM; and `CCC(CC)CN1CCN(C(=O)Nc2cc(Oc3ccc(F)cc3)cc(Oc3ccc(C(=O)N4CCOCC4)cc3)c2)CC1`, with greater than 1000 nM.
Then `CNC(=O)c1ccc(Oc2cc(NC(=O)Nc3cc(Cl)nc(Cl)c3)cc(Oc3ccc(F)cc3)c2)cc1`, with 9.44 nM; and `CCC(CC)CC1(O)CCN(C(=O)Nc2cc(Oc3ccc(F)cc3)cc(Oc3ccc(C(N)=O)cc3)c2)CC1`, with 198 nM.
On to `CNC(=O)c1ccc(Oc2cc(NC(=O)N3CCN(c4ccc(OC)cc4)CC3)cc(Oc3ccc(F)cc3)c2)cc1`, for which the equilibrium dissociation constant (Kd) was 21.5 nM.
With `CCC(CC)CN1CCN(C(=O)Nc2cc(Oc3ccc(F)cc3)cc(Oc3ccc(C(=O)NC4CCCCC4)cc3)c2)CC1`, the Kd stood at 12.7 nM.
`O=C(Nc1cc(Oc2ccncc2)cc(Oc2ccc(F)cc2)c1)Nc1cc(Cl)nc(Cl)c1`: the Kd came to 8.76 nM.
Then `CNC(=O)c1ccc(Oc2cc(NC(=O)N3CCN(c4cccc(OC)c4)CC3)cc(Oc3ccc(F)cc3)c2)cc1`, with greater than 1000 nM.
In the case of `CCC(CC)CN1CCN(C(=O)Nc2cc(Oc3ccc(F)cc3)cc(Oc3ccc(C(=O)OC)cc3)c2)CC1`, the dissociation constant Kd was greater than 1000 nM.
For `CCC(CC)CC1(O)CCN(C(=O)Nc2cc(Oc3ccc(F)cc3)cc(Oc3ccc(C(=O)N(C)C)cc3)c2)CC1`, the dissociation constant (Kd) was determined as 6.62 nM.
Then `CCC(CC)CN1CCN(C(=O)Nc2cc(Oc3ccc(F)cc3)cc(Oc3ccc(C(=O)N4CCCCCC4)cc3)c2)CC1`, with greater than 1000 nM.
For the compound `CNC(=O)c1ccc(Oc2cc(NC(=O)N3CCN(C(=O)OC(C)(C)C)CC3)cc(Oc3ccc(F)cc3)c2)cc1`, the dissociation constant (Kd) was 1.15 nM.
Take `CNC(=O)c1ccc(Oc2cc(NC(=O)N3CCN(c4ccc(Cl)cc4)CC3)cc(Oc3ccc(F)cc3)c2)cc1`: the equilibrium dissociation constant (Kd) was greater than 1000 nM.
Turning to `CC(C)(C)OC(=O)NC1CCN(C(=O)Nc2cc(Oc3ccncc3)cc(Oc3ccc(F)cc3)c2)CC1`, the dissociation constant Kd is greater than 1000 nM.
Take `CCC(CC)CN1CC2CN(C(=O)Nc3cc(Oc4ccc(F)cc4)cc(Oc4ccc(C(=O)NC)cc4)c3)CC2C1` (centres undefined): the equilibrium dissociation constant (Kd) is greater than 1000 nM.
As for `CCNC(=O)c1ccc(Oc2cc(NC(=O)N3CCN(CC(CC)CC)CC3)cc(Oc3ccc(F)cc3)c2)cc1`, the figure is 7.23 nM; as for `O=C(Nc1cc(Cl)nc(Cl)c1)Nc1cc(Cl)nc(Cl)c1`, 13.2 nM.
Consider `O=C(Nc1cc(Oc2ccncc2)cc(Oc2ccc(F)cc2)c1)N1CCC(O)(c2ccc(Cl)cc2)CC1`, for which the equilibrium dissociation constant (Kd) was found to be 66.9 nM.
In the case of `CNC(=O)c1ccc(Oc2cc(NC(=O)N3CCN(C(=O)c4ccc5ccccc5c4)CC3)cc(Oc3ccc(F)cc3)c2)cc1`, the dissociation constant (Kd) stood at 29.2 nM.
As for `CCC(CC)CC1(O)CCN(C(=O)Nc2cc(Oc3ccc(F)cc3)cc(Oc3ccc(C(=O)NC)cc3)c2)CC1`, the figure is 4.15 nM.
Consider `CCC(CC)CN1CCCN(C(=O)Nc2cc(Oc3ccc(F)cc3)cc(Oc3ccc(C(=O)NC)cc3)c2)CC1`, for which the Kd is greater than 1000 nM.
With `CNC(=O)c1ccc(Oc2cc(NC(=O)N3CCN(S(=O)(=O)c4ccc(C)cc4)CC3)cc(Oc3ccc(F)cc3)c2)cc1`, the equilibrium dissociation constant (Kd) is greater than 1000 nM.
